Literature values in patent US20250011247A1, “GYPSUM HARDENED PRODUCT” (KAO CORPORATION, priority 2022, published 2025).

Conditions: 1-octanol/water; measured value if any, otherwise C log P calculated by C LOG P v 4.01

log P: 1.31
SMILES: CCCCC=O [pentanal]
